# Test results taken from PubChem BioAssay (NCI).
#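 48-hour exposure; five concentrations; linearly interpolated endpoints. Abbreviation: GI50, concentration required for 50% inhibition of growth. At the TGI there is no net growth.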
# How the values were obtained:
# Assay in all cases: growth of human tumour cells (NCI), 48 h
# [1] = system: NCI-H460 lung
# [2] = system: PC-3 prostate
# [3] = system: BT-549 breast
# [4] = system: T-47D breast
# [5] = system: MOLT-4 leukemia
# [6] = system: MCF7 breast
# [7] = system: HCC-2998 colon
# [8] = system: ACHN renal
# [9] = system: OVCAR-5 ovarian
# [10] = system: OVCAR-4 ovarian
# [11] = system: NCI/ADR-RES ovarian
# [12] = system: HL-60(TB) leukemia
# [13] = system: RPMI-8226 leukemia
# [14] = system: HCT-15 colon
# [15] = system: SF-268 CNS
# [16] = system: K-562 leukemia
# [17] = system: SN12C renal
# [18] = system: SF-295 CNS
# [19] = system: A498 renal
# [20] = system: SF-539 CNS
# [21] = system: U251 CNS
# [22] = system: MDA-MB-435
# [23] = system: M14 melanoma
# [24] = system: NCI-H226 lung
# [25] = system: CAKI-1 renal
# [26] = system: UO-31 renal
# [27] = system: SR leukemia
# [28] = system: EKVX NSCLC
# [29] = system: HS 578T breast
# [30] = system: OVCAR-8 ovarian
# [31] = system: SK-MEL-28 melanoma
# [32] = system: DU-145 prostate
# [33] = system: RXF 393 renal
# [34] = system: UACC-257 melanoma
# [35] = system: UACC-62 melanoma
# [36] = system: CCRF-CEM leukemia
# [37] = system: NCI-H522 lung
# [38] = system: IGROV1 ovarian
# [39] = system: COLO 205 colon
# [40] = system: MDA-MB-231 breast
# [41] = system: HT29 colon
# [42] = system: TK-10 renal
# [43] = system: SK-MEL-5 melanoma
# [44] = system: HCT-116 colon
# [45] = system: SK-MEL-2 melanoma
# [46] = system: HOP-92 NSCLC
# [47] = system: 786-0 renal
# [48] = system: MALME-3M melanoma
# [49] = system: A549 NSCLC
# [50] = system: KM12 colon
# [51] = system: SW-620 colon
# [52] = system: OVCAR-3 ovarian
# [53] = system: HOP-62 NSCLC
# [54] = system: SNB-75 CNS
# [55] = system: SNB-19 CNS
# [56] = system: SK-OV-3 ovarian
# [57] = system: LOX IMVI melanoma
# [58] = system: NCI-H23 lung
smiles,measurement,setting,value
Fc1ccc(-c2nc(C(Cl)Cl)nc3cc(-c4ccccc4)nn23)cc1,GI50,[1],3.63 µM
same,TGI,[1],> 100 µM
same,GI50,[2],> 100 µM
same,TGI,[2],> 100 µM
same,GI50,[3],> 100 µM
same,TGI,[3],> 100 µM
same,GI50,[4],> 100 µM
same,TGI,[4],> 100 µM
same,GI50,[5],7.81 µM
same,TGI,[5],> 100 µM
same,GI50,[6],7.36 µM
same,TGI,[6],> 100 µM
same,GI50,[7],2.27 µM
same,TGI,[7],6.21 µM
same,GI50,[8],3.58 µM
same,TGI,[8],> 100 µM
same,GI50,[9],22.3 µM
same,TGI,[9],> 100 µM
same,GI50,[10],7.21 µM
same,TGI,[10],> 100 µM
same,GI50,[11],6.48 µM
same,TGI,[11],> 100 µM
same,GI50,[12],3.79 µM
same,TGI,[12],> 100 µM
same,GI50,[13],> 100 µM
same,TGI,[13],> 100 µM
same,GI50,[14],4.64 µM
same,TGI,[14],> 100 µM
same,GI50,[15],> 100 µM
same,TGI,[15],> 100 µM
same,GI50,[16],15.9 µM
same,TGI,[16],> 100 µM
same,GI50,[17],> 100 µM
same,TGI,[17],> 100 µM
same,GI50,[18],28.2 µM
same,TGI,[18],> 100 µM
same,GI50,[19],> 100 µM
same,TGI,[19],> 100 µM
same,GI50,[20],> 100 µM
same,TGI,[20],> 100 µM
same,GI50,[21],5.79 µM
same,TGI,[21],> 100 µM
same,GI50,[22],> 100 µM
same,TGI,[22],> 100 µM
same,GI50,[23],> 100 µM
same,TGI,[23],> 100 µM
same,GI50,[24],> 100 µM
same,TGI,[24],> 100 µM
same,GI50,[25],16 µM
same,TGI,[25],> 100 µM
same,GI50,[26],> 100 µM
same,TGI,[26],> 100 µM
same,GI50,[27],5.23 µM
same,TGI,[27],> 100 µM
same,GI50,[28],7.79 µM
same,TGI,[28],> 100 µM
same,GI50,[29],> 100 µM
same,TGI,[29],> 100 µM
same,GI50,[30],7.33 µM
same,TGI,[30],> 100 µM
same,GI50,[31],> 100 µM
same,TGI,[31],> 100 µM
same,GI50,[32],2.46 µM
same,TGI,[32],6.55 µM
same,GI50,[33],3.79 µM
same,TGI,[33],18.5 µM
same,GI50,[34],> 100 µM
same,TGI,[34],> 100 µM
same,GI50,[35],> 100 µM
same,TGI,[35],> 100 µM
same,GI50,[36],> 100 µM
same,TGI,[36],> 100 µM
same,GI50,[37],7.36 µM
same,TGI,[37],> 100 µM
same,GI50,[38],> 100 µM
same,TGI,[38],> 100 µM
same,GI50,[39],3.67 µM
same,TGI,[39],21.9 µM
same,GI50,[40],35.4 µM
same,TGI,[40],> 100 µM
same,GI50,[41],3.92 µM
same,TGI,[41],> 100 µM
same,GI50,[42],> 100 µM
same,TGI,[42],> 100 µM
same,GI50,[43],> 100 µM
same,TGI,[43],> 100 µM
same,GI50,[44],38.5 µM
same,TGI,[44],> 100 µM
same,GI50,[45],> 100 µM
same,TGI,[45],> 100 µM
same,GI50,[46],> 100 µM
same,TGI,[46],> 100 µM
same,GI50,[47],> 100 µM
same,TGI,[47],> 100 µM
same,GI50,[48],> 100 µM
same,TGI,[48],> 100 µM
same,GI50,[49],3.72 µM
same,TGI,[49],33.8 µM
same,GI50,[50],15.9 µM
same,TGI,[50],> 100 µM
same,GI50,[51],5.05 µM
same,TGI,[51],> 100 µM
same,GI50,[52],6.13 µM
same,TGI,[52],> 100 µM
same,GI50,[53],12.1 µM
same,TGI,[53],> 100 µM
same,GI50,[54],> 100 µM
same,TGI,[54],> 100 µM
same,GI50,[55],10.5 µM
same,TGI,[55],> 100 µM
same,GI50,[56],10.7 µM
same,TGI,[56],> 100 µM
C#CCN(C)CCCOc1ccc(NC(=O)CCCCCCC(=O)NO)cc1Cl,GI50,[1],1.1 µM
same,TGI,[1],> 100 µM
same,GI50,[2],1.53 µM
same,TGI,[2],> 100 µM
same,GI50,[3],3.48 µM
same,TGI,[3],30 µM
same,GI50,[4],0.608 µM
same,TGI,[4],> 100 µM
same,GI50,[5],0.338 µM
same,TGI,[5],> 100 µM
same,GI50,[6],0.813 µM
same,TGI,[6],17.4 µM
same,GI50,[7],1.47 µM
same,TGI,[7],4.23 µM
same,GI50,[8],2.82 µM
same,TGI,[8],12.7 µM
same,GI50,[9],1.7 µM
same,TGI,[9],45.7 µM
same,GI50,[10],4.41 µM
same,TGI,[10],> 100 µM
same,GI50,[11],5.41 µM
same,TGI,[11],> 100 µM
same,GI50,[12],0.589 µM
same,TGI,[12],> 100 µM
same,GI50,[13],1.05 µM
same,TGI,[13],6.78 µM
same,GI50,[14],5.03 µM
same,TGI,[14],> 100 µM
same,GI50,[15],2.92 µM
same,TGI,[15],16.4 µM
same,GI50,[16],0.549 µM
same,TGI,[16],> 100 µM
same,GI50,[17],2.78 µM
same,TGI,[17],> 100 µM
same,GI50,[18],1.68 µM
same,TGI,[18],4.71 µM
same,GI50,[19],1.16 µM
same,TGI,[19],3.04 µM
same,GI50,[20],1.66 µM
same,TGI,[20],17 µM
same,GI50,[21],1.41 µM
same,TGI,[21],7.21 µM
same,GI50,[22],0.835 µM
same,TGI,[22],5.97 µM
same,GI50,[24],4.13 µM
same,TGI,[24],30.6 µM
same,GI50,[25],1.65 µM
same,TGI,[25],8.08 µM
same,GI50,[26],1.5 µM
same,TGI,[26],7.04 µM
same,GI50,[27],0.53 µM
same,TGI,[27],> 100 µM
same,GI50,[28],3.47 µM
same,TGI,[28],> 100 µM
same,GI50,[29],1.15 µM
same,TGI,[29],7.31 µM
same,GI50,[30],0.793 µM
same,TGI,[30],> 100 µM
same,GI50,[31],1.44 µM
same,TGI,[31],11.3 µM
same,GI50,[32],1.68 µM
same,TGI,[32],> 100 µM
same,GI50,[33],0.272 µM
same,TGI,[33],1.11 µM
same,GI50,[34],0.587 µM
same,TGI,[34],13.4 µM
same,GI50,[35],0.57 µM
same,TGI,[35],4.18 µM
same,GI50,[36],0.375 µM
same,TGI,[36],> 100 µM
same,GI50,[37],0.431 µM
same,TGI,[37],8.2 µM
same,GI50,[38],1.23 µM
same,TGI,[38],4.34 µM
same,GI50,[39],0.648 µM
same,TGI,[39],2.45 µM
same,GI50,[40],1.83 µM
same,TGI,[40],16.4 µM
same,GI50,[41],1.42 µM
same,TGI,[41],43 µM
same,TGI,[57],0.12 µM
same,GI50,[42],1.41 µM
same,TGI,[42],11 µM
same,GI50,[43],0.853 µM
same,TGI,[43],2.43 µM
same,GI50,[44],0.437 µM
same,TGI,[44],6.26 µM
same,GI50,[45],3.05 µM
same,TGI,[45],21.8 µM
same,GI50,[46],0.725 µM
same,TGI,[46],4.56 µM
same,GI50,[47],3.52 µM
same,TGI,[47],25.7 µM
same,GI50,[48],0.373 µM
same,TGI,[48],28.4 µM
same,GI50,[49],2.14 µM
same,TGI,[49],13.6 µM
same,GI50,[50],1.91 µM
same,TGI,[50],15.9 µM
same,GI50,[51],0.698 µM
same,TGI,[51],4.31 µM
same,GI50,[52],1.48 µM
same,TGI,[52],13.2 µM
same,GI50,[58],2.44 µM
same,TGI,[58],18.9 µM
same,GI50,[53],1.85 µM
same,TGI,[53],24 µM
same,GI50,[54],0.606 µM
same,TGI,[54],32.1 µM
same,GI50,[55],2.26 µM
same,TGI,[55],17.7 µM
same,GI50,[56],1.54 µM
same,TGI,[56],12.6 µM
